Source: patent US12268694B2, “Combination pharmaceutical agents as RSV inhibitors” (Enanta Pharmaceuticals, Inc., priority 2017, dated 2025)
Where two headings read alike, the source gives them in different places.

System: genotype A, "Long" strain RSV
Assay: RSV-A assay: CPE protection in HEp-2 cells, ATPlite readout
Assay type: cell-based, human respiratory syncytial virus
In short: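 HEp-2 cells (8,000/well) with 2-fold compound dilutions in duplicate, infected with Long-strain RSV at MOI 0.1 and incubated 5 days. Cell ATP measured by ATPlite luminescence to give EC50; uninfected parallel plate gives CC50.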

[1] = human respiratory syncytial virus, HEp-2, read-out: Human RSV-A (“Long” strain) EC50
[2] = HEp-2 cells, RSV-A Long strain, ATPlite readout, read-out: Human RSV-A (“Long” strain) EC50

Row | SMILES | EC50 [1] [nM] | EC50 [2] [nM]
1 | O=C1Nc2ccccc2C(c2ccccc2)=N[C@@H]1Nc1nnc(-c2ncsc2C2=CCOCC2)o1 [Example 347] | < 400 | 
2 | O=C1Nc2ccccc2C(c2ccccc2)=N[C@@H]1Nc1nnc(-c2occc2N2CCOCC2)o1 [Example 348] | < 400 | 
3 | O=C1Nc2ccccc2C(c2ccccc2)=N[C@@H]1Nc1nnc(-c2ccnn2-c2ccccc2)o1 [Example 349] | > 800 | 
4 | O=C1Nc2ccccc2C(c2ccccc2)=N[C@@H]1Nc1nnc(-c2cnn(-c3ccccc3)c2)o1 [Example 350] | 400 to 800 | 
5 | O=C1Nc2ccccc2C(c2ccccc2)=NC1Nc1nnc(-c2ccccc2C2=CCOCC2)o1 (stereo not drawn) [Example 353, 3-((5-(2-(3,6-dihydro-2H-pyran-4-yl)phenyl)-1,3,4-oxadiazol-2-yl)amino)-5-phenyl-1,3-dihydro-2H-benzo[e][1,4]diazepin-2-one] | > 800 | 
6 | O=C1Nc2ccccc2C(c2ccccc2)=NC1Nc1nnc(-c2ccccc2C2CCOCC2)o1 (stereo not drawn) [Example 354] | > 800 | 
7 | O=C1Nc2c(F)cccc2C(c2ccccc2)=N[C@H]1Nc1nnc(-c2ccccc2N2CCOCC2)o1 [Example 355b] | > 800 | 
8 | O=C1Nc2c(F)cccc2C(c2ccccc2)=NC1Nc1nnc(-c2ccc(N3CCOCC3)cc2)o1 (stereo not drawn) [Example 356] | 400 to 800 | 
9 | O=C1Nc2c(F)cccc2C(c2ccccc2)=N[C@@H]1Nc1nnc(-c2ncc(C(F)(F)F)cc2N2CCOCC2)o1 [Example 360] |  | < 400
10 | N#Cc1cnc(-c2nnc(N[C@H]3N=C(c4ccccc4)c4cccc(F)c4NC3=O)o2)c(N2CCOCC2)c1 [Example 361] | < 400 | 
11 | O=C1Nc2ccccc2C(c2ccccc2)=NC1Nc1nnc(-c2ccc(F)cc2)[nH]1 (stereo not drawn) [Example 363] | > 800 | 
12 | N#Cc1ccc(-c2nnc(NC3N=C(c4ccccc4)c4ccccc4NC3=O)[nH]2)cc1 (stereo not drawn) [Example 365] | 400 to 800 | 
13 | O=C1Nc2ccccc2C(c2ccccc2)=NC1Nc1nnc(-c2ccncc2)[nH]1 (stereo not drawn) [Example 366] | > 800 | 
14 | O=C1Nc2ccccc2C(c2ccccc2)=NC1Nc1nnc(-c2ccccc2N2CCOCC2)[nH]1 (stereo not drawn) [Example 367] | > 800 | 
15 | O=C1Nc2ccccc2C(c2ccccc2)=NC1Nc1ncc(-c2ccc(F)cc2)o1 (stereo not drawn) [Example 369] | > 800 | 
16 | O=C1Nc2ccccc2C(c2ccccc2)=NC1Nc1ncc(-c2ccc(Br)cc2)o1 (stereo not drawn) [Example 370] | > 800 | 
17 | O=C1Nc2ccccc2C(c2ccccc2)=NC1Nc1ncc(-c2ccccc2)cn1 (stereo not drawn) [Example 371] | > 800 | 
18 | O=C1Nc2ccccc2C(c2ccccc2)=NC1Nc1nnc(C2CC2)[nH]1 (stereo not drawn) [Example 372] | > 800 | 
19 | O=C1Nc2ccccc2C(c2ccccc2)=NC1Nc1cnc(-c2ccc(F)cc2)cn1 (stereo not drawn) [Example 373] | > 800 | 
20 | O=C1Nc2ccccc2C(c2ccccc2)=NC1Nc1ccc(-c2ccc(F)cc2)nn1 (stereo not drawn) [Example 374] | > 800 | 
21 | O=C1Nc2ccccc2C(c2ccccc2)=NC1Nc1ccc(-c2ccncc2)nn1 (stereo not drawn) [Example 375] | > 800 | 
22 | COc1ccc(-c2ccc(NC3N=C(c4ccccc4)c4ccccc4NC3=O)nn2)cc1 (stereo not drawn) [Example 376] | > 800 | 
23 | O=C1Nc2ccccc2C(c2ccccc2)=NC1Nc1ccc(-c2ccccc2N2CCOCC2)nn1 (stereo not drawn) [Example 378] | > 800 | 

Row | SMILES | EC50 [1] [nM] | EC50 [2] [nM]
24 | O=C1Nc2ccccc2C(c2ccccc2F)=NC1Nc1nnc(-c2ccc(F)cc2)o1 (stereo not drawn) [Example 379] | > 800 | 
25 | O=C1Nc2ccccc2C(c2cccc(F)c2)=NC1Nc1nnc(-c2ccc(F)cc2)o1 (stereo not drawn) [Example 380] | 400 to 800 | 
26 | N#Cc1cccc(C2=NC(Nc3nnc(-c4ccc(F)cc4)o3)C(=O)Nc3ccccc32)c1 (stereo not drawn) [Example 381] | > 800 | 
27 | O=C1Nc2ccccc2C(c2ccc(F)cc2)=NC1Nc1nnc(-c2ccc(F)cc2)o1 (stereo not drawn) [Example 382] | > 800 | 
28 | O=C1Nc2ccccc2C(c2ccccc2)=N[C@@H]1Nc1nnc(-c2cc(C(F)(F)F)sc2N2CCOCC2)o1 [Example 383] | < 400 | 
29 | O=C1Nc2ccccc2C(c2ccccc2)=N[C@@H]1Nc1nnc(-c2cc(C3CC3)sc2N2CCOCC2)o1 [Example 384] | < 400 | 
30 | O=C1Nc2ccccc2C(c2ccccc2)=N[C@@H]1Nc1nnc(-c2nc(-c3ccc(F)cn3)sc2N2CCOCC2)o1 [Example 389] | < 400 | 
31 | O=C1Nc2ccccc2C(c2ccccc2)=N[C@@H]1Nc1nnc(-c2nc(-c3ccc(C(F)(F)F)nc3)sc2N2CCOCC2)o1 [Example 390] | < 400 | 
32 | COC[C@@H]1C[C@H]1c1sc(C(F)(F)F)nc1-c1nnc(N[C@H]2N=C(c3ccccc3)c3ccccc3NC2=O)o1 [Example 394] |  | > 800
33 | COCCCc1sc(C(F)(F)F)nc1-c1nnc(N[C@H]2N=C(c3ccccc3)c3ccccc3NC2=O)o1 [Example 396] | > 800 | 
34 | Cn1cc(-c2nc(-c3nnc(N[C@H]4N=C(c5ccccc5)c5ccccc5NC4=O)o3)c(N3CCOCC3)s2)cn1 [Example 399] | < 400 | 
35 | O=C1Nc2ccccc2C(c2ccccc2)=NC1Nc1nnc(-c2nc(Br)sc2N2CCOCC2)o1 (stereo not drawn) [Example 400] | < 400 | 
36 | CCn1cc(-c2nnc(N[C@H]3N=C(c4ccccc4)c4ccccc4NC3=O)o2)c(N2CCOCC2)n1 [Example 401] | < 400 | 
37 | COCCn1cc(-c2nnc(N[C@H]3N=C(c4ccccc4)c4ccccc4NC3=O)o2)c(N2CCOCC2)n1 [Example 402] | < 400 | 
38 | O=C1Nc2ccccc2C(c2ccccc2)=N[C@@H]1Nc1nnc(-c2oc3ncccc3c2N2CCOCC2)o1 [Example 404] | < 400 | 
39 | O=C1Nc2ccccc2C(c2ccccc2)=N[C@@H]1Nc1nnc(-c2nc(C3CCCCC3)sc2N2CCOCC2)o1 [Example 405] | < 400 | 
40 | C#Cc1nc(-c2nnc(N[C@H]3N=C(c4ccccc4)c4ccccc4NC3=O)o2)c(N2CCOCC2)s1 [Example 406] | < 400 | 
41 | COc1ccc2nccc(-c3nnc(N[C@H]4N=C(c5ccccc5)c5ccccc5NC4=O)o3)c2c1 [Example 408] | > 800 | 
42 | COCc1ccc2nccc(-c3nnc(N[C@H]4N=C(c5ccccc5)c5ccccc5NC4=O)o3)c2c1 [Example 409] | > 800 | 
43 | COc1ccn2ncc(-c3nnc(N[C@H]4N=C(c5ccccc5)c5ccccc5NC4=O)o3)c2c1 [Example 410] | > 800 | 
44 | COCCc1cccn2ncc(-c3nnc(N[C@H]4N=C(c5ccccc5)c5ccccc5NC4=O)o3)c12 [Example 411] | > 800 | 
45 | COCC(C)(C)Nc1cc(C(F)(F)F)cnc1-c1nnc(N[C@H]2N=C(c3ccccc3)c3ccccc3NC2=O)o1 [Example 414] | > 800 | 
46 | COCC1(Nc2cc(C(F)(F)F)cnc2-c2nnc(N[C@H]3N=C(c4ccccc4)c4ccccc4NC3=O)o2)CC1 [Example 415] | > 800 | 

Row | SMILES | EC50 [1] [nM] | EC50 [2] [nM]
47 | COC(C)(C)CNc1cc(C(F)(F)F)cnc1-c1nnc(N[C@H]2N=C(c3ccccc3)c3ccccc3NC2=O)o1 [Example 416] | > 800 | 
48 | O=C1Nc2ccccc2C(c2ccccc2)=N[C@@H]1Nc1nnc(-c2ncc(C(F)(F)F)cc2N[C@H]2CC[C@H]2O)o1 [Example 417] |  | > 800
49 | O=C1Nc2ccccc2C(c2ccccc2)=N[C@@H]1Nc1nnc(-c2ncc(C(F)(F)F)cc2N[C@@H]2CC[C@@H]2O)o1 [Example 418] |  | > 800
50 | O=C1Nc2ccccc2C(c2ccccc2)=N[C@@H]1Nc1nnc(-c2ncc(C(F)(F)F)cc2NC[C@@H]2CCCO2)o1 [Example 419] | 400 to 800 | 
51 | O=C1Nc2ccccc2C(c2ccccc2)=N[C@@H]1Nc1nnc(-c2ncc(C(F)(F)F)cc2NC[C@H]2CCCO2)o1 [Example 420] | < 400 | 
52 | O=C1Nc2ccccc2C(c2ccccc2)=N[C@@H]1Nc1nnc(-c2ncc(C(F)(F)F)cc2NCc2ccco2)o1 [Example 421] | > 800 | 
53 | O=C1Nc2ccccc2C(c2ccccc2)=N[C@@H]1Nc1nnc(-c2ncc(C(F)(F)F)cc2N[C@H]2CCC[C@H]2O)o1 [Example 422] | 400 to 800 | 
54 | O=C1Nc2ccccc2C(c2ccccc2)=N[C@@H]1Nc1nnc(-c2ncc(C(F)(F)F)cc2N[C@@H]2CCC[C@@H]2O)o1 [Example 423] | 400 to 800 | 
55 | CC1(Nc2cc(C(F)(F)F)cnc2-c2nnc(N[C@H]3N=C(c4ccccc4)c4ccccc4NC3=O)o2)CCOC1 (stereo partly drawn) [Example 424] | > 800 | 
56 | O=C1Nc2ccccc2C(c2ccccc2)=N[C@@H]1Nc1nnc(-c2cn(-c3cccnc3)nc2N2CCOCC2)o1 [Example 425] | < 400 | 
57 | COCCn1ccc2cccc(-c3nnc(N[C@H]4N=C(c5ccccc5)c5ccccc5NC4=O)o3)c21 [Example 426] | > 800 | 
58 | O=C1Nc2ccccc2C(c2ccccc2)=N[C@@H]1Nc1nnc(-c2nc(-c3ccccc3F)sc2N2CCOCC2)o1 [Example 427] | < 400 | 
59 | O=C1Nc2ccccc2C(c2ccccc2)=N[C@@H]1Nc1nnc(-c2nc(-c3ccc(F)cc3)sc2N2CCOCC2)o1 [Example 428] | < 400 | 
60 | O=C1Nc2ccccc2C(c2ccccc2)=N[C@@H]1Nc1nnc(-c2cn(C3CCC3)nc2N2CCOCC2)o1 [Example 430] | < 400 | 
61 | O=C1Nc2ccccc2C(c2ccccc2)=N[C@@H]1Nc1nnc(-c2cn(-c3ccccn3)nc2N2CCOCC2)o1 [Example 431] | < 400 | 
62 | Cc1cc(-c2nnc(N[C@H]3N=C(c4ccccc4)c4ccccc4NC3=O)o2)n(C2CCOCC2)n1 [Example 432] | > 800 | 
63 | O=C1Nc2ccccc2C(c2ccccc2)=N[C@@H]1Nc1nnc(-c2nc3ccccc3nc2N2CCOCC2)o1 [Example 433] | < 400 | 
64 | O=C1Nc2ccccc2C(c2ccccc2)=N[C@@H]1Nc1nnc(-c2cc3ccccc3nc2N2CCOCC2)o1 [Example 434] | < 400 | 
65 | N#Cc1ccc2nccc(-c3nnc(N[C@H]4N=C(c5ccccc5)c5ccccc5NC4=O)o3)c2c1 [Example 435] | > 800 | 
66 | CO[C@@H]1COC[C@H]1Nc1cc(C(F)(F)F)cnc1-c1nnc(N[C@H]2N=C(c3ccccc3)c3ccccc3NC2=O)o1 [Example 436] | < 400 | 
67 | CC(C)(O)c1nc(-c2nnc(N[C@H]3N=C(c4ccccc4)c4ccccc4NC3=O)o2)c(N2CCOCC2)s1 [Example 437] | < 400 | 
68 | COCCN1CCCn2ncc(-c3nnc(N[C@H]4N=C(c5ccccc5)c5ccccc5NC4=O)o3)c21 [Example 438] | 400 to 800 | 
69 | COC1C2CN(c3cc(C(F)(F)F)cnc3-c3nnc(N[C@H]4N=C(c5ccccc5)c5ccccc5NC4=O)o3)CC21 (stereo partly drawn) [Example 439] | > 800 | 
